# Test results: patent US7371766B2, “Curcumin analogs with anti-tumor and anti-angiogenic properties” (Emory University, priority 1999, dated 2008)
# Assays:
# A549 = conditions: 48 hours
# PC-3 = conditions: 48 hours
# MOLT-4 = conditions: 48 hours
# OVCAR-5 = conditions: 48 hours
# HOP-62 = conditions: 48 hours
# SK-MEL-5 = conditions: 48 hours
# K-562 = conditions: 48 hours
# 786-0 = conditions: 48 hours
# SNB-19 = conditions: 48 hours
# KM12 = conditions: 48 hours
# OVCAR-4 = conditions: 48 hours
# NCI-H226 = conditions: 48 hours
# HCT-15 = conditions: 48 hours
# SF-295 = conditions: 48 hours
# UACC-257 = conditions: 48 hours
# UACC-62 = conditions: 48 hours
# HCC-2998 = conditions: 48 hours
# RPMI-8226 = conditions: 48 hours
# MDA-MB-435 = conditions: 48 hours
# BT-549 = conditions: 48 hours
# MCF-7 = conditions: 48 hours
# HCT-116 = conditions: 48 hours
# [1] = read-out: Median Growth Inhibitory Concentration (GI50), Melanoma, 48 hours
# [2] = read-out: Median Lethal Concentration (LC50), Melanoma, 48 hours, SRB assay
# [3] = read-out: Median Growth Inhibitory Concentration (GI50), Breast Cancer, 48 hours
# [4] = read-out: Median Lethal Concentration (LC50), Breast Cancer, 48 hours, SRB assay
smiles,measurement,setting,value
"O=C1C(=Cc2ccccc2O)COCC1=Cc1ccccc1O [EF25, 3,5-Bis(2-hyrdoxybenzylidene)tetrahydro4-H-pyran4-one]",GI50,"A549; read-out: Median Growth Inhibitory Concentration (GI50), A549, Non-Small Cell Lung Cancer",2500 nM
same,CC50,"A549; read-out: Median Lethal Concentration (LC50), Non-Small Cell Lung Cancer, A549, SRB assay",71800 nM
same,GI50,"PC-3; read-out: Median Growth Inhibitory Concentration (GI50), PC-3, Prostate Cancer",500 nM
same,CC50,"PC-3; read-out: Median Lethal Concentration (LC50), Prostate Cancer, PC-3, SRB assay",24800 nM
same,GI50,"MOLT-4; read-out: Median Growth Inhibitory Concentration (GI50), MOLT-4, Leukemia",400 nM
same,CC50,"MOLT-4; read-out: Median Lethal Concentration (LC50), Leukemia, MOLT-4, SRB assay",> 100000 nM
same,GI50,"OVCAR-5; read-out: Median Growth Inhibitory Concentration (GI50), OVCAR-5, Ovarian Cancer",1700 nM
same,CC50,"OVCAR-5; read-out: Median Lethal Concentration (LC50), Ovarian Cancer, OVCAR-5, SRB assay",8400 nM
same,GI50,"HOP-62; read-out: Median Growth Inhibitory Concentration (GI50), HOP-62, Non-Small Cell Lung Cancer",1500 nM
same,CC50,"HOP-62; read-out: Median Lethal Concentration (LC50), Non-Small Cell Lung Cancer, HOP-62, SRB assay",37200 nM
same,GI50,"SK-MEL-5; read-out: Median Growth Inhibitory Concentration (GI50), SK-MEL-5, Melanoma",1500 nM
same,CC50,"SK-MEL-5; read-out: Median Lethal Concentration (LC50), Melanoma, SK-MEL-5, SRB assay",6600 nM
same,GI50,"K-562; read-out: Median Growth Inhibitory Concentration (GI50), K-562, Leukemia",600 nM
same,CC50,"K-562; read-out: Median Lethal Concentration (LC50), Leukemia, K-562, SRB assay",91800 nM
same,GI50,"786-0; read-out: Median Growth Inhibitory Concentration (GI50), 786-0, Renal Cancer",400 nM
same,CC50,"786-0; read-out: Median Lethal Concentration (LC50), Renal Cancer, 786-O, SRB assay",32600 nM
same,GI50,"SNB-19; read-out: Median Growth Inhibitory Concentration (GI50), SNB-19, CNS Cancer",2200 nM
same,CC50,"SNB-19; read-out: Median Lethal Concentration (LC50), CNS Cancer, SNB-19, SRB assay",37300 nM
same,GI50,"KM12; read-out: Median Growth Inhibitory Concentration (GI50), KM12, Colon Cancer",300 nM
same,CC50,"KM12; read-out: Median Lethal Concentration (LC50), Colon Cancer, KM12, SRB assay",10700 nM
same,GI50,"OVCAR-4; read-out: Median Growth Inhibitory Concentration (GI50), OVCAR-4, Ovarian Cancer",2000 nM
same,CC50,"OVCAR-4; read-out: Median Lethal Concentration (LC50), Ovarian Cancer, OVCAR-4, SRB assay",23300 nM
same,GI50,"NCI-H226; read-out: Median Growth Inhibitory Concentration (GI50), NCI-H226, Non-Small Cell Lung Cancer",2200 nM
same,CC50,"NCI-H226; read-out: Median Lethal Concentration (LC50), Non-Small Cell Lung Cancer, NCI-H226, SRB assay",58000 nM
same,GI50,"HCT-15; read-out: Median Growth Inhibitory Concentration (GI50), HCT-15, Colon Cancer",700 nM
same,CC50,"HCT-15; read-out: Median Lethal Concentration (LC50), Colon Cancer, HCT-15, SRB assay",16100 nM
same,GI50,"SF-295; read-out: Median Growth Inhibitory Concentration (GI50), SF-295, CNS Cancer",1700 nM
same,CC50,"SF-295; read-out: Median Lethal Concentration (LC50), CNS Cancer, SF-295, SRB assay",35000 nM
same,GI50,"UACC-257; read-out: Median Growth Inhibitory Concentration (GI50), UACC-257, Melanoma",1600 nM
same,CC50,"UACC-257; read-out: Median Lethal Concentration (LC50), Melanoma, UACC-257, SRB assay",8200 nM
same,GI50,"SN12C; read-out: Median Growth Inhibitory Concentration (GI50), Renal Cancer, 48 hours",1400 nM
same,CC50,"SN12C; read-out: Median Lethal Concentration (LC50), Renal Cancer, 48 hours, SRB assay",12000 nM
same,GI50,"UACC-62; read-out: Median Growth Inhibitory Concentration (GI50), UACC-62, Melanoma",1700 nM
same,CC50,"UACC-62; read-out: Median Lethal Concentration (LC50), Melanoma, UACC-62, SRB assay",14400 nM
same,GI50,LOX IMVI; [1],200 nM
same,CC50,LOX IMVI; [2],3600 nM
same,GI50,T-47D; [3],1300 nM
same,CC50,T-47D; [4],92900 nM
same,GI50,"HCC-2998; read-out: Median Growth Inhibitory Concentration (GI50), HCC-2998, Colon Cancer",1500 nM
same,CC50,"HCC-2998; read-out: Median Lethal Concentration (LC50), Colon Cancer, HCT-2998, SRB assay",5300 nM
same,GI50,"RPMI-8226; read-out: Median Growth Inhibitory Concentration (GI50), RPMI-8226, Leukemia",200 nM
same,CC50,"RPMI-8226; read-out: Median Lethal Concentration (LC50), Leukemia, RPMI-8226, SRB assay",70900 nM
same,GI50,"MDA-MB-435; read-out: Median Growth Inhibitory Concentration (GI50), MDA-MB-435, Breast Cancer",1000 nM
same,CC50,"MDA-MB-435; read-out: Median Lethal Concentration (LC50), Breast Cancer, MDA-MB-435, SRB assay",16300 nM
same,GI50,"BT-549; read-out: Median Growth Inhibitory Concentration (GI50), BT-549, Breast Cancer",1500 nM
same,CC50,"BT-549; read-out: Median Lethal Concentration (LC50), Breast Cancer, BT-549, SRB assay",13600 nM
same,GI50,MDA-N; [3],1000 nM
same,CC50,MDA-N; [4],20000 nM
same,GI50,"MCF-7; read-out: Median Growth Inhibitory Concentration (GI50), MCF-7, Breast Cancer",300 nM
same,CC50,"MCF-7; read-out: Median Lethal Concentration (LC50), Breast Cancer, MCF-7, SRB assay",44700 nM
same,GI50,MALME-3M; [1],1900 nM
same,CC50,MALME-3M; [2],19300 nM
same,GI50,"HCT-116; read-out: Median Growth Inhibitory Concentration (GI50), HCT-116, Colon Cancer",800 nM
same,CC50,"HCT-116; read-out: Median Lethal Concentration (LC50), Colon Cancer, HCT-116, SRB assay",11100 nM
